Assay results: patent US20040126751A1 (priority 2002, published 2004)
“And” between values parts separate entries of the source, which are not always exact repeats. Equal entries are not always repeated.

Tests used:
[1] = test system: ATP-dependent potassium current (IK(ATP)); experiment: whole-cell patch-clamp of pinacidil-primed IK(ATP) in isolated ventricular myocytes; type: cell-based, guinea pig; conditions: for outward current density at +30 mV under control conditions: before pinacidil
Source text: The electrophysiological properties of a cardiac myocyte are strongly affected by its energetic condition. Particularly, the adenosine triphosphate (ATP)-dependent potassium current (IK(ATP)) is known to link bioenergetic metabolism with membrane excitability by sensing intracellular concentrations of ATP and adenosine diphosphate (ADP). Under physiological conditions, ATP-dependent potassium channels (K(ATP)-channels) are predominantly closed due to inhibition by intracellular ATP (ATPi). However, when the ATPi concentration falls below certain values (like in pathological states such as acute myocardial ischaemia), the K(ATP)-channels open. […] Thus, the amount of IK(ATP) activation induced by these drugs serves as an indicator of the intracellular ATP-content.
In this example, guinea pig ventricular myocytes were isolated by Langendorff perfusion using collagenase, as is described in H. M. Piper et al., Culturing of calcium stable adult cardiac myocytes, J. Mol. Cell Cardiol. 14 (1982), pp. 397-412. The isolated myocytes were stored in a cell culture medium M 199 (Sigma™, St. Louis, Mo.), supplemented with 5 μg/ml penicillin and 5 IU/ml of streptomycin and were kept in an incubator at 37° C. All experiments were performed within 24 hours after isolation of the myocytes.
Membrane currents were recorded using the whole-cell single electrode voltage-clamp configuration of the patch-clamp technique (see O. P. Hamill et al., Improved patch-clamp techniques for high-resolution current recording from cells and cell-free membrane patches, Pflüger's Arch. 391 (1981), pp. 85-100) using a List L/M-EPC 7 amplifier (List™, Darmstadt, Germany) as previously described by Pelzmann and coworkers in B. Pelzmann et al., Effects of K^+ channel openers on IK(ATP) of human atrial myocytes at physiological temperatures, Naunyn-Schmiedeberg's Arch. […] Only quiescent rod-shaped cells with clear cross striation were used for voltage-clamp experiments. Cell membrane capacitance (Cm) was determined by integration of the capacitive transient elicited by a 10 mV hyperpolarizing pulse from −50 mV. Cm (up to 100 pF) and series resistance (Rs, by at least 50%) were compensated. Voltage-clamp pulses were generated with an IBM-compatible computer connected to a D/A and A/D converter (Digidata 1200™, Axon Instruments, Foster City, USA). Data acquisition and analyses were performed using pCLAMP 5.7.1 software (Axon Instruments). In order to allow equilibration of the pipette solution with the cytosol, current recordings were started five minutes after rupture of the membrane patch.
Two experimental protocols were used in these examples. Modulation of IK(ATP) by drugs was evaluated as the change of outward current density (current amplitudes divided by Cm (pA/pF) in order to compensate for variations in cell size) at +30 mV in response to a 2 second ramp from −100 to +60 mV (Iramp). Time course of IK(ATP) activation and blockade was studied by recording the holding current at −40 mV (Ihold(−40 mV)). Stock solutions of IK(ATP) channel blocker glibenclamide (Sigma™) and of K(ATP) channel opener pinacidil (Sigma™) were prepared in dimethyl sulfoxide (DMSO). Averaged data are expressed as a mean±standard deviation (or standard error of the mean, SEM), with n=number of cells. Error bars in the figures represent standard deviations (except in FIG. 5).
(§1) Statistical significance was determined by a two-tailed Student's t-test or, if more than two conditions were compared, by one-way analysis of variance (ANOVA) with the LSD (least significant difference) post hoc test. Differences were considered significant when P<0.05.

cardiomyocytes = experiment: HPLC determination of intracellular adenine nucleotide content of cardiomyocytes; type: cell-based, guinea pig; conditions: four hours
Procedure: The analytical method used for the determination of adenine nucleotides was that reported in Hallström, S. et al., “S-nitroso human serum albumin treatment reduces ischemia/reperfusion injury in skeletal muscle via nitric oxide release,” Circulation, 105 (2002), 3023-3038 (“Hallström et al.”). In brief, the only alterations from the analytical method reported by Hallström et al. were as follows: separation was performed on a Hypersil ODS column (5 μm, 250 mm×4 mm I.D.) using a Waters™ 717 plus Autosampler, two constaMetric™ III pumps, a gradient controller (LDC/Milton Roy) and a Waters™ 969 photodiode array detector; detector signals (absorbance at 254 nm) were recorded with an AGC™ Personal Computer; and the program Millennium (Waters™) was used for data requisition and analysis. Cardiomyocytes were deproteinized with 250 μL of 0.4 M/L perchloric acid. After centrifugation (12,000 g), 200 μL of the acid extract were neutralized with 12.5 μL of 2 M potassium carbonate (4° C.). The supernatant (10 μL) obtained after centrifugation was used for High Performance Liquid Chromatography (HPLC) analysis. The pellets of the acid extract were dissolved in 1 mL of 0.1 M sodium hydroxide and further diluted 1:10 with physiologic saline for protein determination (BCA Protein Assay, Pierce). The percentage of living cells was estimated by determining the ratio of the number of rod shaped to rounded myocytes. At least 600 myocytes were counted for each preparation.
as §1

PC 12 cells = conditions: NADH-supplementation of PC 12 cells; cited from earlier work
rat striatal slices = conditions: cited from earlier work
[2] = incubation in amounts equimolar to 400 μg/ml NADH

SMILES: COc1ccc(Cl)cc1C(=O)NCCc1ccc(S(=O)(=O)NC(=O)NC2CCCCC2)cc1 [glibenclamide]
- inhibition of pinacidil-activated IK(ATP) ([1]; 1 μM glibenclamide after 30 μM pinacidil): completely inhibited
- effect on basal Iramp ([1]; physiological conditions, 4.3 mM ATPi, data not shown): did not affect Iramp

SMILES: NC(=O)c1cccnc1 [nicotinamide]
- outward current density after washout of pinacidil [1, 2]: 1.13±0.15 pA/pF
- outward current density at +30 mV after addition of 30 μM pinacidil [1, 2]: 30.5±4.83 pA/pF
- outward current density at +30 mV under control conditions [1, 2]: 2.01±0.36 pA/pF

SMILES: NC(=O)c1ccc[n+]([C@@H]2O[C@H](COP(=O)([O-])OP(=O)(O)OC[C@H]3O[C@@H](n4cnc5c(N)ncnc54)[C@H](O)[C@@H]3O)[C@@H](O)[C@H]2O)c1 [NAD^+, β-nicotinamide adenine dinucleotide, oxidized form]
- outward current density after washout of pinacidil [1, 2]: 1.44±0.25 pA/pF
- outward current density at +30 mV after addition of 30 μM pinacidil [1, 2]: 29.0±7.01 pA/pF
- outward current density at +30 mV under control conditions [1, 2]: 1.96±0.20 pA/pF

SMILES: NC(=O)C1=CN(C2OC(COP(=O)([O-])OP(=O)([O-])OCC3OC(n4cnc5c(N)ncnc54)C(O)C3O)C(O)C2O)C=CC1.[Na+].[Na+] (stereo not drawn) [NADH, β-nicotinamide adenine dinucleotide, reduced form, disodium salt]
- outward current density at +30 mV after application of pinacidil ([1]; incubation 200 μg/ml, 30 μM pinacidil, 4.3 mM ATPi): 25.4±3.97 pA/pF
- outward current density at +30 mV under control conditions ([1]; incubation 200 μg/ml, 4-6 hours): 1.82±0.33 pA/pF
- outward current density after washout of pinacidil ([1]; incubation 300 μg/ml): 1.09±0.14 pA/pF
- outward current density at +30 mV under control conditions ([1]; incubation 300 μg/ml, 4-6 hours): 1.72±0.19 pA/pF
- outward current density at +30 mV under control conditions ([1]; incubation 400 μg/ml, 4-6 hours): 1.70±0.18 pA/pF
- outward current density after washout of pinacidil ([1]; incubation 800 μg/ml): 1.75±0.48 pA/pF
- outward current density at +30 mV under control conditions ([1]; incubation 800 μg/ml, 4-6 hours): 1.76±0.36 pA/pF
- outward current density at +30 mV under control conditions ([1]; incubation 1600 μg/ml, 4-6 hours): 2.53±0.49 pA/pF
- ATP content in cardiomyocytes (cardiomyocytes; 400 mcg per ml cell culture medium, control 35.35±2.57): 45.59±1.88 nmol/mg protein of living cells
- ADP content in cardiomyocytes compared to control (cardiomyocytes; 400 mcg per ml): no significant alteration
- AMP content in cardiomyocytes compared to control (cardiomyocytes; 400 mcg per ml): no significant alteration
- dopamine production (PC 12 cells): increased dopamine production
- dopamine release (rat striatal slices): increase of dopamine release

SMILES: CC(N/C(=N\C#N)Nc1ccncc1)C(C)(C)C (stereo not drawn) [pinacidil]
- outward current density at +30 mV (Iramp) ([1]; 30 μM pinacidil, 1 mM ATPi): 52.2±13.8 pA/pF
- outward current density at +30 mV (Iramp) ([1]; 30 μM pinacidil, 4.3 mM ATPi, control myocytes): 28.9±3.38 pA/pF and 28.3±3.26 pA/pF
- outward current density at +30 mV after washout ([1]; after washout of 30 μM pinacidil (5 minutes), control myocytes): 1.81±0.22 pA/pF and 1.81±0.21 pA/pF
